Measured values published in patent US20060121483A1, “Methods for detecting teneurin signalling and related screening methods” (priority 2002, published 2006).
Where a SMILES comes first, the peptide text is derived from it. [ ]: non-standard residue; d: D form. Nle = CCCC[C@H](N)C(=O)O

How the values were obtained:
Assay type in all cases: cell-based
[1] = test system: EcR-293 cells; experiment: Proliferation assay, EcR-293 cells; conditions: EcR-293 cells without transfected cytoplasmic domain of teneurin-2
Procedure: (§1) The effect of the expression of the cytoplasmic domain of teneurin-2 on cell proliferation was tested. K3 cells (EcR-293 cells (Invitrogen) containing the stably integrated plasmid pVgRXR (Invitrogen) and the plnd teneurin-2 plasmid encoding the cytoplasmic domain, described in Example 7) were cultured in the presence or absence of ponasterone, which induces expression of the cytoplasmic domain of teneurin-2. Typically, over a 5 day period, parallel cultures were fixed with 4% formaldehyde every day and cell numbers were determined by staining the cells with crystal violet (0.1% in H20). In the presence of ponasterone and thus in the presence of the cytoplasmic domain of teneurin, the K3 cells were retarded in their growth rate to about 50% of the untreated cells. Proliferation of EcR-293 cells without transfected cytoplasmic domain of teneurin-2 was not affected by the addition of ponasterone, proving that the growth retardation was specifically dependent on the presence of the cytoplasmic domain of teneurin-2.

[2] = test system: K3 cells; experiment: Proliferation assay, K3 cells; conditions: 5 day period, crystal violet, ponasterone induces the cytoplasmic domain of teneurin-2
Procedure: as §1

[3] = test system: transcriptional activity of Zic; experiment: Zic / ApoE-luciferase reporter assay in EcR 293 stable transfectants
[4] = test system: BDAD-CTEY; experiment: BDAD-teneurin-2 fusion GAL4 luciferase reporter (cleavage) assay; conditions: addition of protease inhibitors; ALLN 25 μg/ml, lactacystin 10 μM
Procedure: (§2) HT1 080 human fibrosarcoma (ATCC CRL-12012) and COS-7 cells (SV40-transformed kidney fibroblasts from the African green monkey, ATCC CRL-1651) were routinely maintained In DMEM medium (Dulbecco's Modified Eagles Medium) supplemented with 10% FCS (fetal calf serum). For transient transfections the cells were seeded in 6-well plates or 4-well staining dishes (Greiner). Twelve hours later they were transfected with the expression vectors containing the constructs (1 μg of each vector) described above and in Example 2 (Zic), Example 4 and Example 5 by using FUGENE-6 (3 μl, 6 μl or 9 μl for one, two to three, or four different plasmids, respectively). […]
The cells were lysed by adding reporter lysis buffer (Promega). Serial dilutions of the lysed cell suspension were then pipetted into Microlite™ luciferase plates (Dynex Technologies) and the luciferase activity was measured in a Microlumat (LB96P, EG+G Berthold) by automatic injection of luciferin substrate solution (2 mM luciferin, 100 mM ATP in 250 mM glycin pH 7.8, 150 mM MgSO4). […] To stop the enzymatic reaction, three times the sample volume of 1 M Na2CO3 was added and the OD was measured at 405 nm in a microplate reader (BioRad). […]

[5] = test system: teneurin-2 CTE; experiment: Western blot of teneurin-2 CTE and its cleavage products; conditions: two cleavage products, one the size of the cytoplasmic domain alone
Procedure: as §2, with “respectively). The cells were treated with the following substances at least five hours after transfection: ALLN (25 μg/ml; N-acetyl-leu-leu-norleu-AL; Sigma); tunicamycin (2 μg/ml; Sigma) or lactacystin (10 μM; e.g. Sigma) for four or eight hours prior to harvesting.” for “respectively).”
(§3) The gels were transferred to PVDF (polyvinylidene fluoride) membranes. The proteins were detected by anti-GAL4 antibody (BDAD and BDAD-C) or by anti-teneurin-2 serum (BDAD-CTE and BDAD-CTEY), horseradish peroxidase coupled secondary antibodies and ECL SuperSignal® (Pierce).

[6] = test system: teneurin-2 C; experiment: Teneurin-2 C expression level after co-transfection with Zic; conditions: HT1080 cells, transient co-transfection of teneurin-2 C and Zic; lactacystin 10 μM
Procedure: as §2, with “respectively). The cells were treated with the following substances at least five hours after transfection: ALLN (25 μg/ml; N-acetyl-leu-leu-norleu-AL; Sigma); tunicamycin (2 μg/ml; Sigma) or lactacystin (10 μM; e.g. Sigma) for four or eight hours prior to harvesting.” for “respectively).”
as §3
In this Example, it was determined whether the zinc finger transcription factor Zic, a vertebrate homologue of opa would influence, or be influenced by, the cytoplasmic domain of teneurin-2. […]

Structure (SMILES)	proliferation [1]	growth rate relative to untreated cells [2]	expression level of the reporter gene (ApoE-luciferase) after induction of teneurin-2 C ([3]; EcR 293 stable transfectants transiently transfected with Zic, ponasterone induces teneurin-2 C)	induction of luciferase activity following transfection of BDAD-CTEY [4]	stabilisation of cleavage products of CTE (western blot) [5]	stabilization of teneurin-2 C ([3]; ALLN 25 μg/ml)	inhibitory effect of teneurin-2 C on the transcriptional activity of Zic (ApoE-luciferase reporter) ([3]; EcR 293 cells, teneurin-2 C induced by ponasterone, in the presence of ALLN)	Zic induced downregulation of teneurin-2 C [6]
CC(C)CC[C@@H](O)[C@](C)(O)[C@H]1CC[C@@]2(O)C3=CC(=O)[C@@H]4C[C@@H](O)[C@@H](O)C[C@]4(C)[C@H]3CC[C@]12C [ponasterone]	not affected	about 50%	marked reduction	–	–	–	–	–
CCCC[C@@H](C=O)NC(=O)[C@H](CC(C)C)NC(=O)[C@H](CC(C)C)NC(C)=O [ALLN, N-acetyl-leu-leu-norleu-AL] (Ac-Leu-Leu-[Nle]-aldehyde)	–	–	–	markedly upregulated	stabilisation of two particular cleavage products	stabilize teneurin-2 C	more pronounced	–
CC(=O)N[C@@H](CSC(=O)[C@]1([C@@H](O)C(C)C)NC(=O)[C@H](C)[C@@H]1O)C(=O)O [lactacystin]	–	–	–	markedly upregulated	–	–	–	counteracted
